From article PMC6685790 (Nature structural & molecular biology, 2008) come the findings set out here.

By EC50 is commonly meant the concentration giving half of the maximal effect. In general, IC50 refers to the concentration that gives 50% inhibition.

Common to all, as to experiment: Whole-cell recording of substituted GlyR in HEK cells
Format in all cases: cell-based

Test [1] concerns the target T1, GlyR α1^I111A (Homo sapiens, UniProt P23415, I139A).
T1 sequence (P23415 29-457 I139A): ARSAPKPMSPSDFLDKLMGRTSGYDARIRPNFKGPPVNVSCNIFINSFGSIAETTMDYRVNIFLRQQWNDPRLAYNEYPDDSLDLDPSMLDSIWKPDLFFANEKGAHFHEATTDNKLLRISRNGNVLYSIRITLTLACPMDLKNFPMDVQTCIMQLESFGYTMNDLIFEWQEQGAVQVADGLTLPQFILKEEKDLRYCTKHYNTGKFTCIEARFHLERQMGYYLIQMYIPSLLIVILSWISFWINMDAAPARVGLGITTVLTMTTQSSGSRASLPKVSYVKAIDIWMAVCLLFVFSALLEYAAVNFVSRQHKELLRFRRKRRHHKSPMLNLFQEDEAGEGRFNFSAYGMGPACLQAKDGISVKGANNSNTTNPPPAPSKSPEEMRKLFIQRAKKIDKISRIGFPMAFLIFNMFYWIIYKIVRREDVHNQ

For test [2], the target named is T2, GlyR α1^V60A (Homo sapiens, UniProt P23415, V88A).
T2 sequence (P23415 29-457 V88A): T1 sequence (P23415 29-457 I139A) with V60A, A111I

Test [3] has as its target T3, GlyR α1^I62A (Homo sapiens, UniProt P23415, I90A).
T3 sequence (P23415 29-457 I90A): T1 sequence (P23415 29-457 I139A) with I62A, A111I

Test [4] has as its target T4, GlyR α1^L64A (Homo sapiens, UniProt P23415, L92A).
T4 sequence (P23415 29-457 L92A): T1 sequence (P23415 29-457 I139A) with L64A, A111I

For test [5], the target named is T5, GlyR α1^F99A (Homo sapiens, UniProt P23415, F127A).
T5 sequence (P23415 29-457 F127A): T1 sequence (P23415 29-457 I139A) with F99A, A111I
The following applies: α1^F99A.

Test [6] addresses T6, GlyR α1^F99A,E157A (Homo sapiens, UniProt P23415, E185A/F127A).
T6 sequence (P23415 29-457 F127A/E185A): T1 sequence (P23415 29-457 I139A) with F99A, A111I, E157A

The mark [7] stands for this setting: maximal Zn^2+ response as percentage of maximal glycine response in same cell.
Where [8] appears, read: read-out: Zn^2+ Activation EC50, direct activation without glycine.
The mark [9] stands for this setting: read-out: Zn^2+ Inhibition IC50, modulation of EC50 glycine currents.

Positions count from the first letter of the chain named.

As to `NCC(=O)O` [Glycine, glycine], the “Glycine Imax” value in test [1] is recorded as 4.6 ± 0.8 nA; in test [2] it was 6.5 ± 1.3 nA; in test [3], 7.6 ± 0.7 nA; in test [4] it was 5.6 ± 0.8 nA; in test [5], 3.9 ± 0.4 nA. The “Glycine nH” value in test [1] (Hill slope) was 1.3 ± 0.2; in test [2] (Hill slope), 3.5 ± 0.8; in test [3] (Hill slope) it was 2.5 ± 0.1; in test [4] (Hill slope), 2 ± 0.6; in test [5] (Hill slope), 2.3 ± 0.3. Further, the Activation by glycine entry in test [6] (α1^F99A,E157A, up to 10 mM glycine) was “insensitive”.
`[Zn+2]` [Zn^2+]: the “Zn^2+ Activation nH” value in test [1] (Hill slope) came out at 0.7 ± 0.2; in test [4] (Hill slope) it was 1.1 ± 0.4; in test [5] (Hill slope), 1.1 ± 0.1. Further, the “Zn^2+ Activation Relative efficacy (% Gly Imax)” value in test [1] (setting [7]) came out at 83 ± 3 % Gly Imax; in test [3] (maximal activation with 1 mM Zn^2+, as percentage of maximal glycine response in same cell), 3 ± 1 % Gly Imax; in test [4] (setting [7]), 10 ± 3 % Gly Imax; in test [5] (setting [7]), 86 ± 13 % Gly Imax. Besides, the concentration giving a half-maximal response (EC50) in test [1] (setting [8]) is 470 ± 130 µM; in test [3] (setting [8]), more than 1000 µM; in test [4] (setting [8]) it was 1.5 ± 1.3 µM; in test [5] (setting [8]), 0.13 ± 0.03 µM. For the same molecule, the IC50 was more than 1000 µM in test [1] (setting [9]); 10.1 ± 1.26 µM in test [2] (setting [9]); more than 1000 µM in test [3] (setting [9]); 70 ± 9 µM in test [4] (setting [9]); more than 1000 µM in test [5] (setting [9]). Moreover, the “Zn^2+ Activation EC50” value in test [2] (direct activation without glycine) is “None”. The “Decrease in sensitivity to Zn^2+ activation” value in test [6] (E157A on α1^F99A background vs α1^F99A) stood at 3 fold. In addition, in test [6] (α1^F99A,E157A, Zn^2+ activation), the “Zn^2+ sensitivity compared with α1^F99A” value is recorded as “identical”.
